Test results taken from patent publication US20230293530A1, “AGENTS FOR SENSITIZING SOLID TUMORS TO TREATMENT” (Yeda Research and Development Co. Ltd., priority 2020, published 2023).

Columns and labels:
[1] = tested on: MC38 cells; test: Cell viability by crystal violet staining, MC38; type: cell-based, mouse; conditions: 300 µM mizoribine, 24 h
Experimental: A) Purine/pyrimidine ratio is increased upon nutrient deprivation in […] colon cancer cells. MC38 cells were grown in either regular medium or in medium without glucose for 24 h. Nucleotide levels were measured by LC-MS. Purine/pyrimidine ratio was calculated by dividing (AMP+GMP) AUC by (UMP+CMP) AUC. B) 4T1 cells with and without shASS1 were grown in glucose free medium either supplemented or not with 10 mM L-Name for 48 hrs. Nucleotide levels were measured by LC-MS. Purine/pyrimidine ratio was calculated by dividing the sum levels of (AMP+GMP) by the sum levels of (UMP+CMP+TMP). […] MC38 cells were grown either with or without 300 µM mizoribine for 24 h. Nucleotide levels were measured by LC-MS. […] 4T1 (left panel) and MC38 cells (right panel) were grown for 24 h with or without 300 µM mizoribine. Cell viability was measured by crystal violet staining. Each experiment was conducted with biological and technical replicates and repeated at least three times. All error bars represent SER. * P<0.05, ** denotes P<0.01, ***P<0.001.

[2] = tested on: MC38 cells; test: Nucleotide levels by LC-MS in MC38 cells with or without mizoribine; type: cell-based, mouse; conditions: 300 µM mizoribine, 24 h
Experimental: A) Purine/pyrimidine ratio is increased upon nutrient deprivation in […] colon cancer cells. MC38 cells were grown in either regular medium or in medium without glucose for 24 h. Nucleotide levels were measured by LC-MS. Purine/pyrimidine ratio was calculated by dividing (AMP+GMP) AUC by (UMP+CMP) AUC. B) 4T1 cells with and without shASS1 were grown in glucose free medium either supplemented or not with 10 mM L-Name for 48 hrs. Nucleotide levels were measured by LC-MS. Purine/pyrimidine ratio was calculated by dividing the sum levels of (AMP+GMP) by the sum levels of (UMP+CMP+TMP). […] MC38 cells were grown either with or without 300 µM mizoribine for 24 h. Nucleotide levels were measured by LC-MS. […] Cell viability was measured by crystal violet staining. […]
LC-MS analysis: The LC-MS/MS instrument consisting of an Acquity I-class UPLC system (Waters) and Xevo TQ-S triple quadrupole mass spectrometer (Waters), equipped with an electrospray ion source, and operated in positive ion mode was used for analysis of nucleoside monophosphates. […] Nucleotide concentration was calculated using a standard curve of the relevant nucleotide concentration in each sample. Standard curves included increasing concentration of all measured nucleotides ranging from 0-10 ug/ml that were positioned at the beginning and at the end of each run. […]

NC(=O)c1ncn([C@@H]2O[C@H](CO)[C@@H](O)[C@H]2O)c1O [Mizoribine, mizoribine]
cancer cell proliferation (cell viability, crystal violet) [1]: restricts ASS1-overexpressing cancer cell proliferation | purine/pyrimidine ratio (AMP+GMP) AUC/(UMP+CMP) AUC [2]: decreased purine/pyrimidine ratio
